For assay [1], the target named is T1, SARS-CoV-2 PLpro (nsp3 1564–1878) (Severe acute respiratory syndrome coronavirus 2, UniProt P0DTD1). The assay is described as follows: biochemical. The settings on record: low concentration screen, read-out: % of control remaining. Further details: FRET-quenched peptide (Pro3) cleavage by PLpro, 10 min pre-incubation, slope over 20 min, normalised to no-compound control.

Assay [2] concerns the target T1, SARS-CoV-2 PLpro (nsp3 1564–1878). Description: biochemical. Further details: FRET-quenched peptide (Pro3) cleavage by PLpro, 10 min pre-incubation, slope over 20 min, normalised to no-compound control. To be noted: high concentration screen, read-out: % of control remaining.

Counter-ions that a name gives are not always drawn. Like-named read-outs stand apart in the source and are kept apart here.

Turning to `CCCCCC[C@@H]([C@@H](C)O)n1cnc2c(N)ncnc21` [erythro-9-(2-Hydroxy-3-nonyl)adenine hydrochloride], in assay [1] (Well no.=513), the remaining activity at 1.25 µM was found to be 105%. In addition, the remaining activity at 3.75 µM in assay [2] (Well no.=513) is 105%.
Take `CCOC(=O)[C@@H](N)CCC(=O)N[C@@H](CSCc1ccccc1)C(=O)N[C@@H](C(=O)OCC)c1ccccc1` [ethyl N5-((R)-3-(benzylthio)-1-(((R)-2-ethoxy-2-oxo-1-phenylethyl)amino)-1-oxopropan-2-yl)-L-glutaminate]: the remaining activity at 1.25 µM in assay [1] (Well no.=5457) was 105%. In assay [2] (Well no.=5457), the remaining activity at 3.75 µM is 108%.
Consider `C#CC(N)CCC(=O)O` (stereo not drawn) [gamma-Acetylinic GABA], for which, in assay [1] (Well no.=258), the remaining activity at 1.25 µM was 94%. Further, the remaining activity at 3.75 µM in assay [2] (Well no.=258) is 94.8%.
For `N[C@H](CCC(=O)NCS(=O)(=O)O)C(=O)O` [gamma-D-Glutamylaminomethylsulfonic acid], the remaining activity at 1.25 µM in assay [1] (Well no.=652) amounted to 92.4%. The remaining activity at 3.75 µM in assay [2] (Well no.=652) came to 94%.
On to `COc1cc(C(O)C(=O)O)ccc1O` (stereo not drawn) [hydroxy(4-hydroxy-3-methoxyphenyl)acetic acid], for which the remaining activity at 1.25 µM in assay [1] (Well no.=5433) was 103%. In addition, in assay [2] (Well no.=5433), the remaining activity at 3.75 µM came to 108%.
Take `O[C@H]1[C@H](O)[C@@H](O)[C@H](O)[C@@H](O)[C@H]1O` [i-Inositol]: the remaining activity at 1.25 µM in assay [1] (Well no.=6495) is 98.4%. Also, the remaining activity at 3.75 µM in assay [2] (Well no.=6495) was found to be 101%.
In the case of `O=C1NCCSc2c1sc1ccc(O)cc21` [kb NB 142-70], the remaining activity at 1.25 µM in assay [1] (Well no.=6738) was found to be 92%. The remaining activity at 3.75 µM in assay [2] (Well no.=6738) amounted to 92.4%.
For the compound `CC(C(=O)O)c1ccc(CC2CCCC2=O)cc1` (stereo not drawn) [loxoprofen], the remaining activity at 1.25 µM in assay [1] (Well no.=927) came out at 104%. The remaining activity at 3.75 µM in assay [2] (Well no.=927) came out at 105%.
Regarding `CN1CCN2c3c(cccc31)[C@@H]1CN(CCCC(=O)c3ccc(F)cc3)CC[C@@H]12` [lumateperone (Tosylate)], the remaining activity at 1.25 µM in assay [1] (Well no.=7807) turned out to be 104%. The remaining activity at 3.75 µM in assay [2] (Well no.=7807) amounted to 108%.
Turning to `Cc1cc(C)c(S(=O)(=O)Nc2cccc(C(F)(F)F)c2)c(C)c1` [m -3M3FBS], the remaining activity at 1.25 µM in assay [1] (Well no.=5841) was 99.6%. The remaining activity at 3.75 µM in assay [2] (Well no.=5841) worked out at 98.2%.
For the compound `NC(N)=NCc1cccc(I)c1` [m -Iodobenzylguanidine hemisulfate salt], the remaining activity at 1.25 µM in assay [1] (Well no.=6075) turned out to be 99.1%. Also, the remaining activity at 3.75 µM in assay [2] (Well no.=6075) stood at 97.8%.
On to `NC(N)=NCc1cccc(I)c1` [m-Iodobenzylguanidine hemisulfate], for which the remaining activity at 1.25 µM in assay [1] (Well no.=777) amounted to 105%. Further, in assay [2] (Well no.=777), the remaining activity at 3.75 µM was found to be 108%.
For the compound `OC[C@@H](O)[C@@H](O)CO` [meso-Erythritol], in assay [1] (Well no.=6547), the remaining activity at 1.25 µM turned out to be 107%. In assay [2] (Well no.=6547), the remaining activity at 3.75 µM was 106%.
As for `CCCCCCCCOC(=O)/C=C/c1ccc(O)c(O)c1` [n-Octyl caffeate], the remaining activity at 1.25 µM in assay [1] (Well no.=4043) worked out at 93.2%. Further, in assay [2] (Well no.=4043), the remaining activity at 3.75 µM was 95.8%.
For `Oc1ccc2c3c1O[C@H]1c4[nH]c5c(c4C[C@@]4(O)[C@@H](C2)N(CC2CC2)CC[C@]314)C[C@@]1(O)[C@H]2Cc3ccc(O)c4c3[C@@]1(CCN2CC1CC1)[C@H]5O4` [nor-Binaltorphimine dihydrochloride], in assay [1] (Well no.=805), the remaining activity at 1.25 µM turned out to be 100%. Further, the remaining activity at 3.75 µM in assay [2] (Well no.=805) came to 97%.
With `Oc1ccc2ccccc2c1SSc1c(O)ccc2ccccc12` [p21-Activated Kinase Inhibitor III, IPA-3], the remaining activity at 1.25 µM in assay [1] (Well no.=2525) amounted to 99.9%. For the same compound, the remaining activity at 3.75 µM in assay [2] (Well no.=2525) was 102%.
For the compound `CSc1nc(-c2ccnc(NC(C)c3ccccc3)c2)c(-c2ccc(F)cc2)[nH]1` (stereo not drawn) [p38 MAP Kinase Inhibitor III], the remaining activity at 1.25 µM in assay [1] (Well no.=2596) is 94.7%. Also, the remaining activity at 3.75 µM in assay [2] (Well no.=2596) was determined as 94.5%.
As to `O=S(=O)(c1c(O)c(Cl)cc(Cl)c1Cl)c1c(O)c(Cl)cc(Cl)c1Cl` [p38 MAP Kinase Inhibitor IV], the remaining activity at 1.25 µM in assay [1] (Well no.=2527) was determined as 97.2%. In addition, the remaining activity at 3.75 µM in assay [2] (Well no.=2527) amounted to 103%.
As to `COc1cc(SC)ccc1C(=O)N1CCC(Cc2ccccc2)CC1` [p38 MAP Kinase Inhibitor VI, JX401], the remaining activity at 1.25 µM in assay [1] (Well no.=2529) worked out at 101%. Also, the remaining activity at 3.75 µM in assay [2] (Well no.=2529) stood at 105%.
`NC(=O)c1ccc2[nH]ccc2c1` [p38 MAP Kinase Inhibitor VII, SD-169]: in assay [1] (Well no.=2531), the remaining activity at 1.25 µM amounted to 99.1%. For the same compound, the remaining activity at 3.75 µM in assay [2] (Well no.=2531) was found to be 94.8%.
Regarding `O=c1c(-c2ccc(F)cc2)c(-c2ccncc2)[nH]n1-c1ccc(Cl)cc1` [p38 MAP Kinase Inhibitor], the remaining activity at 1.25 µM in assay [1] (Well no.=2598) is 97.4%. In addition, the remaining activity at 3.75 µM in assay [2] (Well no.=2598) was found to be 99.2%.
Take `CC(=O)Nc1ccc(NC(=S)NC(=O)c2ccc(C(C)(C)C)cc2)cc1` [p53 Activator (Tenovin-1)]: the remaining activity at 1.25 µM in assay [1] (Well no.=2901) was 97.7%. The remaining activity at 3.75 µM in assay [2] (Well no.=2901) worked out at 96.4%.
Consider `CCOc1cc(C(C)(C)C)ccc1C1=N[C@@](C)(c2ccc(Cl)cc2)[C@@](C)(c2ccc(Cl)cc2)N1C(=O)N1CCN(CC(=O)N2CCOCC2)CC1` [p53 and MDM2 proteins-interaction-inhibitor (dihydrochloride)], for which the remaining activity at 1.25 µM is 98.9% in assay [1] (Well no.=6832) and 107% in assay [1] (Well no.=7702). In addition, the remaining activity at 3.75 µM in assay [2] (Well no.=6832) is 94.5%; in assay [2] (Well no.=7702) it was 106%.
In the case of `Nc1cc(Cl)c(NC2=NCCN2)c(Cl)c1` [p-Aminoclonidine hydrochloride], in assay [1] (Well no.=151), the remaining activity at 1.25 µM turned out to be 102%. In assay [2] (Well no.=151), the remaining activity at 3.75 µM worked out at 102%.
With `O=C1C=CC(=O)C=C1` [p-Benzoquinone], the remaining activity at 1.25 µM in assay [1] (Well no.=166) was 102%. Moreover, in assay [2] (Well no.=166), the remaining activity at 3.75 µM turned out to be 105%.
With `N[C@@H](Cc1ccc(F)cc1)C(=O)O` [p-Fluoro-L-phenylalanine], the remaining activity at 1.25 µM in assay [1] (Well no.=707) was 95.3%. Also, in assay [2] (Well no.=707), the remaining activity at 3.75 µM turned out to be 87%.
As for `O=Cc1ccc(O)cc1` [p-Hydroxybenzaldehyde], the remaining activity at 1.25 µM in assay [1] (Well no.=6531) is 103%. Also, in assay [2] (Well no.=6531), the remaining activity at 3.75 µM turned out to be 103%.
For `O=C(O)C=Cc1ccc(O)cc1` [p-Hydroxycinnamic acid], the remaining activity at 1.25 µM in assay [1] (Well no.=7161) was 105%. For the same compound, in assay [2] (Well no.=7161), the remaining activity at 3.75 µM was found to be 103%.
In the case of `Clc1cc(I)cc(Cl)c1NC1=NCCN1` [p-Iodoclonidine hydrochloride], the remaining activity at 1.25 µM in assay [1] (Well no.=873) was 110%. In addition, in assay [2] (Well no.=873), the remaining activity at 3.75 µM came to 113%.
`COc1ccccc1N1CCN(CCN(C(=O)c2ccc(F)cc2)c2ccccn2)CC1` [p-MPPF dihydrochloride]: in assay [1] (Well no.=899), the remaining activity at 1.25 µM turned out to be 100%. Besides, the remaining activity at 3.75 µM in assay [2] (Well no.=899) was determined as 101%.
Regarding `COc1ccccc1N1CCN(CCN(C(=O)c2ccc(I)cc2)c2ccccn2)CC1` [p-MPPI hydrochloride], the remaining activity at 1.25 µM in assay [1] (Well no.=1137) is 97.8%. The remaining activity at 3.75 µM in assay [2] (Well no.=1137) was determined as 102%.
Consider `CNCC(O)c1ccc(O)cc1` (stereo not drawn) [p-Synephrine], for which the remaining activity at 1.25 µM in assay [1] (Well no.=7313) amounted to 98.5%. In assay [2] (Well no.=7313), the remaining activity at 3.75 µM is 102%.

These data come from publication PMC8286840, “Identifying SARS-CoV-2 antiviral compounds by screening for small molecule inhibitors of Nsp3 papain-like protease” (Biochemical Journal, 2021).
